Source: patent publication US20220323329A1, “ORAL HEALTH COMPOSITION AND PREPARATION PROCESS FOR ORAL HEALTH COMPOSITION” (MMF&T DESENVOLVIMENTO TECNOLÓGICO E INOVAÇÃO LTDA., priority 2019, published 2022)

Experiments:
[1] = PDT with phthalocyanine-glucamine as PTS; rats; cited from earlier work
[2] = system: Enterococcus faecalis (ATCC 29212); experiment: Antimicrobial potential of phthalocyanine by direct contact; type: cell-based; settings: different concentrations and timespans (10.000 mg and 1.000 mg, 24 hours in FIG. 3)
Experimental: (§1) Studies were carried out for the improvement of antimicrobial potential of phthalocyanines, in an intrinsic aim of developing toothpastes, such as dental creams and dental foams including phthalocyanine for in vitro studies and possibly also in vivo studies.
(§2) For this purpose, the following microorganisms were used: Streptococcus mutans (ATCC 25175); Candida albicans (ATCC 10231); Enterococcus faecalis (ATCC 29212); and Staphylococcus aureus (ATCC 6538).

[3] = system: Staphylococcus aureus (ATCC 6538); experiment: as above; type: cell-based; settings: different concentrations and timespans (10.000 mg and 1.000 mg, 24 hours in FIG. 4)
Experimental: as §1, §2

[4] = system: Candida albicans (ATCC 10231); experiment: as above; type: cell-based; settings: different concentrations and timespans (10.000 mg and 1.000 mg, 24 hours in FIG. 2)
Experimental: as §1, §2

[5] = system: Streptococcus mutans (ATCC 25175); experiment: as above; type: cell-based; settings: different concentrations and timespans (10.000 mg and 1.000 mg, 3 and 5 minutes in FIGS. 5, 6)
Experimental: as §1, §2

| Molecule | treatment of induced periodontal disease [1] | microbicidal action / inhibition of microbial growth [2] | microbicidal action / inhibition of microbial growth [3] | microbicidal action / inhibition of microbial growth [4] | microbicidal action / inhibition of microbial growth [5] |
| --- | --- | --- | --- | --- | --- |
| phthalocyanine-glucamine | effective in the treatment of periodontal disease induced in rats | – | – | – | – |
| c1ccc2c(c1)-c1nc-2nc2[nH]c(nc3nc(nc4[nH]c(n1)c1ccccc41)-c1ccccc1-3)c1ccccc21 [phthalocyanine] | – | full inhibition of microbial growth | full inhibition of microbial growth | full inhibition of microbial growth | full inhibition of microbial growth |
